From patent publication US20160270393A1, “INSECT REPELLENT COMPOSITIONS AND METHODS OF USE” (Wageningen Universiteit, priority 2013, published 2016)
Entries after “also recorded” stand apart in the source; their conditions may differ. Read-outs that look alike come from different tables or passages of the source.

Key:
[1] = tested on: An. gambiae s.s., Mbita strain; conditions: comparison statement; DEET not tested in this setup; cited from earlier work
[2] = tested on: Anopheles gambiae s.s. females; assay: Laboratory bioassay of repellent compounds (landings on heated, odour-baited plateau); assay type: in vivo; conditions: for effect on number of landings during eight minutes compared to ethanol control: 1% in ethanol on nylon strip, ten females, n=8, Mann-Whitney U, α=0.0042, listed in order of increasing efficacy; for repellent effect on host-seeking mosquitoes: 1% concentration
Procedure: The bioassay was set up in a room in which air temperature and relative humidity (RH) could easily be controlled. During experiments these parameters were continuously monitored using a Tinyview® data logger with display. Temperature was maintained at 24±1° C. and RH was kept between 60 and 75%.
Because repellents are volatile compounds, the risk of contamination of the setup is always present when testing these substances. Therefore, this bioassay uses replaceable 30×30×30 cm Bugdorm® cages as flight chambers. Although made of polyethylene (PE) and polypropylene (PP) which may potentially pick up the compounds tested, no contamination effects were observed, in contrast to a previously used cage made of metal and polycarbonate (see below).
Mosquitoes were attracted to a heated circular plateau (1) of diameter 15 cm acting as a landing surface, that was positioned underneath the gauze bottom of the Bugdorm® (2). Ten moist filter papers (3) of diameter 8 cm were applied on top of the heating plateau. Metal gauze was placed over the papers on which the strips releasing the odour blend were laid (see below). A transparent plastic cylinder was placed around the plateau to concentrate the warm, humid air within the area above the plateau.
A five-compound odour bait, which simulates the smell of a human foot (Mukabana et al., 2012), provided the necessary attractive background against which repellency could be measured. The individual compounds were released from nylon strips (cut from panty hoses: 90% polyamide, 10% spandex, Marie Claire®) (see Okumu et al. (2010b)). Concentrations were optimized for this release method: ammonia (25%), L-(+)-lactic-acid (88-92%), tetradecanoic acid (16% in ethanol), 3-methyl-1-butanol (0.01% in paraffin oil) and butan-1-amine (0.001% in paraffin oil). Strips measuring 26.5 cm×1 cm were impregnated with the attractive compounds by dipping them into an Eppendorf tube containing 1 ml of solution. Subsequently, they were stored at room temperature for three to five hours. Hereafter the strips were hung for half an hour under a fume hood to allow excess fluids to leak off. Finally they were packed in aluminium foil and stored at 4° C. in a refrigerator until use. Pulses of CO2 were released into the Bugdorm® through a teflon tube (4) that rested on top of the Bugdorm®. Each eight seconds, a two second pulse was released at 2.17 mL/sec (or 130 mL/min).
A glass screen (5, 6) was placed between the Bugdorm® and the place from where a researcher would carry out the behavioural observations. In this way, skin and breath emanations from the researcher were prevented from interfering directly with the mosquitoes inside the flight chamber. In the ceiling of the experimental room a fan created a gentle suction to carry off any volatiles emitted by both the experimental operator and the setup.
Repellence was measured by releasing a number of female Anopheles gambiae s.s. mosquitoes into the cage. The mosquitoes were highly attracted to the warm area on the bottom of the Bugdorm® cage and they would land and probe with their proboscis through the gauze in search of a blood-host.
A potential repellent was released from a nylon strip that was prepared identically to the method used for attractive compounds, with the exception that the strips were not hung up under a fume hood but stored in Eppendorf tubes at 4° C. directly after their preparation. The impregnated nylon strips with the repellents were taken out of their solution just before the start of the experiment and allowed to leak out on a piece of filter paper for 10 s before they were placed in the experimental setup. Strips were laid directly on the gauze bottom of the Bugdorm®, in a circle within the circular area under which the attractant blend was released.
After one minute of acclimatization time, the number of landings within the circular area formed by the treated strip was counted for a period of eight minutes. […]

[3] = tested on: An. gambiae s.s., Mbita strain; assay: Semi-field testing in MalariaSphere (push / push-pull, trap catches inside and outside experimental house); assay type: in vivo, Anopheles gambiae s.s.; parameters: Reduction (mosquitoes trapped indoors vs control): concentration or dose not given beside the values; conditions: for spatial repellent effect: inventors' observation, repellent traps spaced about 4-5 meters apart; for Indoors Mean (SEM) no. mosquitoes / Indoors Percentage trapped / Reduction (mosquitoes trapped indoors vs control) / Outdoors Mean (SEM) no. mosquitoes / Outdoors Percentage trapped: n=6
Text: Mosquitoes (An. gambiae s.s., Mbita strain; henceforth termed An. gambiae) were reared under ambient atmospheric conditions in screenhouses (larvae) and holding rooms (adults) at the Thomas Odhiambo Campus (TOC) of the International Centre of Insect Physiology and Ecology (ICIPE) located near Mbita Point township in western Kenya. Mosquito eggs were placed in plastic trays containing filtered water from Lake Victoria. All larval instars were fed on Tetramin® baby fish food which was supplied thrice per day. Pupae were collected daily and placed in mesh-covered cages (30×30×30 cm) prior to adult emergence. Adult mosquitoes were fed on 6% glucose solution through wicks made from adsorbent tissue paper.
Four to six day old female mosquitoes that had no prior access to blood were used for the semi-field experiments. The mosquitoes were collected from the colony at 12:00 h each day and stored for eight hours in the colony room with access to water on cotton wool. Within 15 min. before the start of the experiment the cups with the mosquitoes were transported to the MalariaSphere.
The experiments were conducted in Kenya at the Mbita Point Research & Training Centre of the International Centre of Insect Physiology and Ecology (ICIPE). Experiments took place in the MalariaSphere, a screenhouse into which a traditional house was built surrounded by natural vegetation (see Knols et al. (2002)). […] The MalariaSphere was set up as described by Knols et al. (2002) with as only modification that no breeding sites were present.
In the experiment the effects of attractant-baited traps and the dispersal of repellents around the traditional house were tested. Eight different setups were tested. During all tests, one attractant-baited trap (see below) was placed inside the experimental house to represent a human being. The house entry of the mosquitoes was measured by the number of mosquitoes caught by the trap inside the house.
Each night at 20:00 h, 200 female mosquitoes were released into the MalariaSphere. At 06:30 h the next morning the experiment was terminated by closing and switching off all traps. The traps were then placed in a freezer for several minutes to inactivate the mosquitoes, after which the number of trapped mosquitoes was determined.
The study compared the effect of three different repellents; in push-only situations, as well as in situations in which both the repellent and the attractive elements were present. […] Open circles represent a MMX trap baited with attractant. Filled circles represent a MMX trap dispersing the repellent. The asterisk indicates the mosquito release point. The numbers of the treatments correspond to the following:
Each setup was tested during six different nights, thus a total of 48 tests was carried out, during the same number of nights. The order of the tests was not fully randomized in order to minimize the risk of contamination of the MalariaSphere with the odours used.
Besides PMD, catnip essential oil (e.o.) and delta-undecalactone (dUDL) were used as repellents. Strips were impregnated with 40% solutions (catnip e.o. and dUDL were dissolved in paraffin oil) as described below.
Each night 200 mosquitoes were released from one central point between the entrance of the screenhouse and the experimental hut (see FIG. 3).
Mosquito Magnet® X (MM-X) traps (Kline (1999), Njiru et al (2006)) were baited with CO2 and a five-compound odour blend, which simulates the smell of a human foot (Mukabana et al., 2012). The individual compounds of the attractive blend were released from nylon strips (cut from panty hoses: 90% polyamide, 10% spandex, Marie Claire®) (Okumu et al. (2010b)). Concentrations were optimized for this setup and release method: ammonia (2.5% in water), L-(+)-lactic-acid (88-92%), tetradecanoic acid (0.000032% in ethanol), 3-methyl-1-butanol (0.000001% in water) and butan-1-amine (0.001% in paraffin oil) (see Table 1). […]

[4] = background statement; cited from earlier work
[5] = push only, 40% solution on strip, 200 mosquitoes released per night
[6] = push only, 200 released per night

SMILES | effect on number of landings during eight minutes compared to ethanol control [2] | spatial repellent effect [3] | Indoors Mean (SEM) no. mosquitoes [3, 5] | Indoors Percentage trapped [3, 6] [%] | Outdoors Mean (SEM) no. mosquitoes ([3]; push-pull) | Outdoors Percentage trapped ([3]; push-pull) [%] | solubility [4] | repellent effect on host-seeking mosquitoes [2] | further results
CCN(CC)C(=O)c1cccc(C)c1 [DEET, N,N-diethyl-meta-toluamide] | significantly reduced the number of landings |  |  |  |  |  |  |  | spatial repellent effect [1]: little or no spatial repellent effect; also recorded: no spatial effect on distances from the human skin greater than a few millimeters
CC(=O)CCC=C(C)C [6-methyl-5-hepten-2-one] | significantly reduced the number of landings |  |  |  |  |  |  |  | 
CCCCCCC1CCCC(=O)O1 (stereo not drawn) [δ-undecalactone, 6-hexyloxan-2-one] | significantly reduced the number of landings | significant spatial repellent effect; also recorded: significant repellent effect from a distance of at least several decimeters | 15.2 (2.5) c(d) | 7.6 | 122.8 (7.1) | 61.4 | solubility in alcohol | strong repellent effect | Reduction (mosquitoes trapped indoors vs control) ([3]; push only, listed as dUDL): 81.5%; Reduction (mosquitoes trapped indoors vs control) ([3]; push only, listed as delta-undecalactone): 81.5%; Indoors Mean (SEM) no. mosquitoes ([3]; push-pull (repellent plus attractant-baited traps outside), 200 released per night, listed as dUDL): 3.7 (0.7) d; Indoors Mean (SEM) no. mosquitoes ([3]; push-pull (repellent plus attractant-baited traps outside), 200 released per night, listed as delta-undecalactone): 3.7 (0.7); Indoors Percentage trapped ([3]; push-pull, 200 released per night, listed as dUDL): 1.9%; Indoors Percentage trapped ([3]; push-pull, 200 released per night, listed as delta-undecalactone): 1.9%; Reduction (mosquitoes trapped indoors vs control) ([3]; push-pull, listed as dUDL): 95.5%; Reduction (mosquitoes trapped indoors vs control) ([3]; push-pull, listed as delta-undecalactone): 95.5%
CCCCCC1CCCC(=O)O1 (stereo not drawn) [δ-decalactone, 6-pentyloxan-2-one] | significantly reduced the number of landings | significant spatial repellent effect; also recorded: significant repellent effect from a distance of at least several decimeters |  |  |  |  | solubility in alcohols or oils | strong repellent effect | 
CC1CCC(C(C)(C)O)C(O)C1 (stereo not drawn) [PMD, p-Menthane-3,8-diol, reference compound] | significantly reduced the number of landings |  | 44.5 (5.6) b | 22.3 | 125.0 (13.8) | 62.5 |  |  | Reduction (mosquitoes trapped indoors vs control) ([3]; push only): 45.7%; Indoors Mean (SEM) no. mosquitoes ([3]; push-pull (repellent plus attractant-baited traps outside), 200 released per night): 6.8 (1.2) c, d; Indoors Percentage trapped ([3]; push-pull, 200 released per night): 3.4%; Reduction (mosquitoes trapped indoors vs control) ([3]; push-pull): 91.7%
C=CC(C)(O)CCC=C(C)C (stereo not drawn) [linalool] | significantly reduced the number of landings |  |  |  |  |  |  |  | 
